# Measured values: patent publication US9169241B2, “Quinolinyloxyphenylsulfonamides” (Max-Planck-Gesellschaft Zur Forderung der Wissenschaften …, priority 2009, dated 2015)
# Read-outs that look alike come from different tables or passages of the source.
# Tests used:
# SF126 = assay: Cell vitality assay (ATP assay, CellTiter-Glo); format: cell-based; details: Homo sapiens, SF-126; SF126, 72 h; Table IIa; read-out: IC50 ATP-Assay after 72 h SF126
# Method in brief: (§1)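 1000 cells/well incubated 72 h with compound at 12.5 down to 0.195 μM (twofold steps) or DMSO control. Viability measured as cellular ATP by CellTiter-Glo luminescence; IC50 taken as the concentration giving 50% of the DMSO-control ATP level.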
# A172 = assay: Cell vitality assay (ATP assay, CellTiter-Glo); format: cell-based; details: Homo sapiens, A 172; A172, 72 h; Table IIa; read-out: IC50 ATP-Assay after 72 h A172
# Method in brief: as §1
# U118 = assay: Cell vitality assay (ATP assay, CellTiter-Glo); format: cell-based; details: U118, 72 h; Table IIa; read-out: IC50 ATP-Assay after 72 h U118
# Method in brief: as §1
# Hs578T [1] = assay: Cell vitality assay (ATP assay, CellTiter-Glo); format: cell-based; details: Homo sapiens, Hs-578T; HS578T cell line, 72 h; Table Ib; read-out: IC50 ATP-Assay HS578T after 72 h
# Method in brief: as §1
# Hs578T [2] = assay: Matrigel outgrowth assay/branching assay; format: cell-based; details: Homo sapiens, Hs-578T; HS578T cell line; Table Ib; read-out: Total branching inhibition in Matrigel HS578T
# Method in brief: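 Read-out: microscopic images of invasive branching structures at 48 h, 72 h and 96 h. Cells sat on a 3 mg/ml Matrigel layer (set 1 h, 37° C) with compound at 3.125, 1.56 and 0.78 μM or DMSO. A concentration counts as positive only with complete branching inhibition.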
# indicated cell line = assay: Wound healing migration assay (Table IV); format: cell-based; details: compounds at 12.5, 6.25, 3.125 μM, 48 h-72 h
# Method in brief: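 Cells seeded at 150000/24 well, grown to monolayer overnight, scratched with a pipette tip, then treated with compound at 12.5, 6.25 or 3.125 μM versus DMSO. Stopped by crystal violet fixation at 48-72 h once control wounds closed; IC50 taken as 50% wound size between t0 and t48 or t72.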
# cells = assay: Boyden chamber migration assay (Table VI); format: cell-based; details: Homo sapiens, Hs-578T, 16 h, Hs578T cells; 16 h migration
# Method in brief: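 20000 cells seeded in the upper compartment in 0% FCS plus 0.1% BSA and left 16 h to migrate through […] membrane toward 10% FCS medium below. Non-migrated cells swabbed off; cells on the filter underside fixed and counted.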
# [3] = Homo sapiens, A 172, A172 cells, read-out: IC50 Wound healing Assay A172
# [4] = Homo sapiens, SF-126, SF126 cells, read-out: IC50 Wound healing Assay SF126
# [5] = U118 cells, read-out: IC50 Wound healing Assay U118
# [6] = Homo sapiens, C8161 cells, read-out: IC50 Wound healing Assay C8161
# [7] = SF763 cells, read-out: IC50 Wound healing Assay SF763
melting point [°C],IC50 (indicated cell line; [3]) [µM],IC50 (indicated cell line; [4]) [µM],IC50 (indicated cell line; [5]) [µM],IC50 (cells) [µM],IC50 (indicated cell line; [6]) [µM],IC50 (indicated cell line; [7]) [µM],Structure (SMILES),IC50 (SF126) [µM],IC50 (A172) [µM],IC50 (U118) [µM],IC50 (Hs578T [1]) [µM],IC50 (Hs578T [2]) [µM]
,≤ 12.5,≤ 12.5,≤ 12.5,,,,"COc1cc2c(Oc3ccc(NS(=O)(=O)c4c(F)cccc4F)cc3F)ccnc2cc1OCCCN1CCN(C)CC1 [Example 110, 2,6-Difluoro-N-(3-fluoro-4-{6-methoxy-7-[3-(4-methyl-piperazin-1-yl)-propoxy]-quinolin-4-yloxy}-phenyl)-benzenesulfonamide]",≤ 12.5,≤ 12.5,≤ 12.5,≤ 12.5,≤ 10
183 to 185,,,,≤ 5,≤ 12.5,≤ 12.5,"COc1cc2c(Oc3ccc(NS(=O)(=O)c4cc(Cl)cc(Cl)c4OC)cc3F)ccnc2cc1OCCCN1CCN(C)CC1 [Example 35, 3,5-Dichloro-N-(3-fluoro-4-{6-methoxy-7-[3-(4-methyl-piperazin-1-yl)-propoxy]-quinolin-4-yloxy}-phenyl)-2-methoxy-benzenesulfonamide]",,,,≤ 12.5,≤ 10
146 to 148,≤ 12.5,≤ 12.5,≤ 12.5,,,,"COC(=O)c1sccc1S(=O)(=O)Nc1ccc(Oc2ccnc3cc(OCCCN4CCN(C)CC4)c(OC)cc23)c(F)c1 [Example 158, 3-(3-Fluoro-4-{6-methoxy-7-[3-(4-methyl-piperazin-1-yl)-propoxy]-quinolin-4-yloxy}-phenylsulfamoyl)-thiophene-2-carboxylic acid methyl ester]",≤ 12.5,≤ 12.5,≤ 12.5,≤ 12.5,10 to 25
242 to 244,12.5 to 50,≤ 12.5,12.5 to 50,,,,"COc1cc2c(Oc3ccc(NS(=O)(=O)c4c(F)cccc4F)cc3F)ccnc2cc1OCCCN1CCCCC1 [Example 11, 2,6-Difluoro-N-{3-fluoro-4-[6-methoxy-7-(3-piperidin-1-yl-propoxy)-quinolin-4-yloxy]-phenyl}-benzenesulfonamide]",12.5 to 50,12.5 to 50,12.5 to 50,≤ 12.5,10 to 25
171 to 172,≤ 12.5,≤ 12.5,≤ 12.5,,,,"COc1cc2c(Oc3ccc(NS(=O)(=O)c4c(Cl)cccc4Cl)cc3Cl)ccnc2cc1OCCCN1CCN(C)CC1 [Example 119, 2,6-Dichloro-N-(3-chloro-4-{6-methoxy-7-[3-(4-methyl-piperazin-1-yl)-propoxy]-quinolin-4-yloxy}-phenyl)-benzenesulfonamide]",≤ 12.5,≤ 12.5,≤ 12.5,≤ 12.5,≤ 10

# The next lines start with the compound.
Structure (SMILES),melting point [°C],IC50 (indicated cell line; [3]) [µM],IC50 (indicated cell line; [4]) [µM],IC50 (indicated cell line; [5]) [µM],IC50 (cells) [µM],IC50 (indicated cell line; [6]) [µM],IC50 (indicated cell line; [7]) [µM],IC50 (SF126) [µM],IC50 (A172) [µM],IC50 (U118) [µM],IC50 (Hs578T [1]) [µM],IC50 (Hs578T [2]) [µM]
"COC(=O)c1sccc1S(=O)(=O)Nc1ccc(Oc2ccnc3cc(OCCCN4CCC(C)CC4)c(OC)cc23)c(F)c1 [Example 156, 3-(3-Fluoro-4-{6-methoxy-7-[3-(4-methyl-piperidin-1-yl)-propoxy]-quinolin-4-yloxy}-phenylsulfamoyl)-thiophene-2-carboxylic acid methyl ester]",139 to 141,≤ 12.5,≤ 12.5,≤ 12.5,,,,≤ 12.5,≤ 12.5,≤ 12.5,≤ 12.5,10 to 25
"COc1cc2c(Oc3c(Cl)cc(NS(=O)(=O)c4c(F)cccc4F)cc3Cl)ccnc2cc1OCCCN1CCC(C)CC1 [Example 209, N-(3,5-Dichloro-4-{6-methoxy-7-[3-(4-methyl-piperidin-1-yl)-propoxy]-quinolin-4-yloxy}-phenyl)-2,6-difluoro-benzenesulfonamide]",146 to 151,≤ 12.5,≤ 12.5,≤ 12.5,,,,≤ 12.5,≤ 12.5,≤ 12.5,≤ 12.5,≤ 10
"COc1cc2c(Oc3ccc(NS(=O)(=O)c4ccccc4[N+](=O)[O-])cc3F)ccnc2cc1OCCCN1CCCC(C)C1 (centres unmarked) [Example 40, N-(3-Fluoro-4-{6-methoxy-7-[3-(3-methyl-piperidin-1-yl)-propoxy]-quinolin-4-yloxy}-phenyl)-2-nitro-benzenesulfonamide]",136 to 138,≤ 12.5,≤ 12.5,≤ 12.5,,,,≤ 12.5,≤ 12.5,12.5 to 50,≤ 12.5,≤ 10
"COc1cc2c(Oc3ccc(NS(=O)(=O)c4ccc(F)c(Cl)c4)cc3F)ccnc2cc1OCCCN1CCCC(C)C1 (centres unmarked) [Example 57, 3-Chloro-4-fluoro-N-(3-fluoro-4-{6-methoxy-7-[3-(3-methyl-piperidin-1-yl)-propoxy]-quinolin-4-yloxy}-phenyl)-benzenesulfonamide]",124 to 126,,,,5 to 50,≤ 12.5,12.5 to 50,,,,≤ 12.5,≤ 10
"COc1cc2c(Oc3ccc(NS(=O)(=O)c4c(F)cccc4F)cc3F)ccnc2cc1OCCN1CCOCC1 [Example 82, 2,6-Difluoro-N-{3-fluoro-4-[6-methoxy-7-(2-morpholin-4-yl-ethoxy)-quinolin-4-yloxy]-phenyl}-benzenesulfonamide]",182 to 183,,,,5 to 50,≤ 12.5,≤ 12.5,,,,≤ 12.5,≤ 10
"COC(=O)c1sccc1S(=O)(=O)Nc1ccc(Oc2ccnc3cc(OCCCN4CCCCC4)c(OC)cc23)c(F)c1 [Example 155, 3-{3-Fluoro-4-[6-methoxy-7-(3-piperidin-1-yl-propoxy)-quinolin-4-yloxy]-phenylsulfamoyl}-thiophene-2-carboxylic acid methyl ester]",138 to 139,≤ 12.5,≤ 12.5,≤ 12.5,,,,≤ 12.5,≤ 12.5,≤ 12.5,≤ 12.5,10 to 25
"COc1cc2c(Oc3ccc(NS(=O)(=O)c4ccccc4F)cc3F)ccnc2cc1OCCN1CCOCC1 [Example 81, 2-Fluoro-N-{3-fluoro-4-[6-methoxy-7-(2-morpholin-4-yl-ethoxy)-quinolin-4-yloxy]-phenyl}-benzenesulfonamide]",168 to 169,,,,≤ 5,≤ 12.5,12.5 to 50,,,,≤ 12.5,≤ 10
"COc1cc2c(Oc3ccc(NS(=O)(=O)c4cc(Cl)cc(Cl)c4OC)cc3F)ccnc2cc1OCCCN1CCCCC1 [Example 34, 3,5-Dichloro-N-{3-fluoro-4-[6-methoxy-7-(3-piperidin-1-yl-propoxy)-quinolin-4-yloxy]-phenyl}-2-methoxy-benzenesulfonamide]",173 to 175,,,,≤ 5,≤ 12.5,12.5 to 50,,,,≤ 12.5,≤ 10
"COc1cc2c(Oc3cccc(NS(=O)(=O)c4ccccc4C(F)(F)F)c3)ccnc2cc1OCCCN1CCN(C)CC1 [Example 102, N-(3-{6-Methoxy-7-[3-(4-methyl-piperazin-1-yl)-propoxy]-quinolin-4-yloxy}-phenyl)-2-trifluoromethyl-benzenesulfonamide]",155 to 156,,,,≤ 5,12.5 to 50,≤ 12.5,,,,≤ 12.5,10 to 25
"COc1cc2c(Oc3ccc(NS(=O)(=O)c4cccc5ccccc45)cc3F)ccnc2cc1OCCCN1CCCC(C)C1 (centres unmarked) [Example 58, Naphthalene-1-sulfonic acid (3-fluoro-4-{6-methoxy-7-[3-(3-methyl-piperidin-1-yl)-propoxy]-quinolin-4-yloxy}-phenyl)-amide]",131 to 133,,,,≤ 5,12.5 to 50,≤ 12.5,,,,≤ 12.5,≤ 10
